Test [1] can be described thus: Blocker Index (BI), expert graders, isovaleric acid malodorous swatch. Also noted: key: BI odor strength 0 (lowest, clean swatch) to 3 (highest). The text has this: (§1) Blocker materials suitable for use in consumer products of the present invention are chosen for their ability to decrease malodor, while not interfering with perception of a fragrance. Material selection is done by assigning two indices to a test sample material from two reference scales in order to rank odor strengths. The two reference scales are the Fragrance Fidelity Index (FFI) scale and the Blocker Index (BI) scale. The FFI ranks the ability of the test sample material to impart a perceivable odor which could cause interference when combined with another fragrance and the BI ranks the ability of the test sample material to reduce malodor perception. The two methods for assigning the indices to a test sample on the FFI and the BI reference scales are given below.
The first step in the method for assigning a BI to a test sample material on the BI reference scale is to create the BI reference swatches. […] Fabric swatches for this test are white knit polycotton (4 inch×4 inch) swatches from EMC ordered as PC 50/50. The supplier is instructed to strip the swatches first, stripping involves washing twice with a fragrance-free detergent and rinsing three times.
The BI scale contains one clean swatch with no malodor applied. […] These solutions are pipetted to the middle of the swatches. […] After drying for 30 minutes in a vented hood, the swatches are wrapped in aluminum foil to prevent odor contamination to the treated swatch. A clean untreated swatch is also included as the lowest anchor point of reference for malodor strength on the BI scale. The BI reference scale swatches should be used within 0.5 to 12 hours and discarded after 12 hours. The swatches are used as scale anchor points when graders evaluate a test sample(s) and are assigned a Blocker Index (BI) as show in Table 12.
The perfumer/expert grader is asked to rank order swatches according to a scale between 0 and 3.
The reference swatches represent the 0, 1, 2, and 3 BIs on the BI reference scale, Table 12. The expert grader should familiarizes him/herself with the strength of the odor on the BI reference swatches by sniffing each one starting at 0 (the lowest odor strength) and ending at 3 (the highest odor strength). This should be done prior to evaluating the swatch treated with the test material.
To evaluate the BI, the test material is applied to a malodorous swatch to determine how well the test material blocks the malodor. […] After drying the malodorous swatch a known concentration of test material solution, between 1 ppm and 100 ppm is pipetted onto the malodorous swatch. […] It is sometimes necessary to evaluate several levels of the test material between about 1 and about 100 ppm to determine the BI.
At least two perfumers/expert graders are used to assign the BI to the test sample. […] The test sample swatch is assigned a BI at or between numbers on the BI in table.

Test [2] is described as follows: Fragrance Fidelity Index (FFI), expert graders, treated fabric swatch against ethyl vanillin reference scale.
Excerpt: as §1
The first step in the method for assigning an FFI to the test samples on the FFI reference scale is to create the FFI reference swatches. […] Fabric swatches for this test are white knit polycotton (4 inch×4 inch) swatches from EMC ordered as PC 50/50. The supplier is instructed to strip the swatches first, stripping involves washing twice with a fragrance-free detergent and rinsing three times.
Pipette 13 μL of each of the three solutions into the middle of a clean swatch resulting in about a 1 cm diameter of the solution in the middle of the swatch. This will create a sensory scale of three swatches with three different odor levels based on the concentration of the solution pipetted onto the swatch. After drying for 30 minutes in a vented hood, the swatches are wrapped in aluminum foil to prevent odor contamination to the treated swatch. A clean untreated swatch is also included as the lowest anchor point of reference for odor strength on the FFI scale. The FFI reference scale swatches should be used within 0.5 to 12 hours and discarded after 12 hours. The swatches are used as scale anchor points when graders evaluate a test sample(s) and are assigned a Fragrance Fidelity Index (FFI) as show in Table 7.
The perfumer/expert panel is asked to rank order swatches according to a scale between 0 and 3.
The reference swatches represent the 0, 1, 2, and 3 FFIs on the FFI reference scale, Table 9. The expert grader should familiarize them self with the strength of the odor on the FFI reference swatches by sniffing each one starting at 0 (the lowest odor strength) and ending at 3 (the highest odor strength). This should be done prior to evaluating the test sample material treated swatch.
A clean swatch is treated with 13 μL of a known concentration of a test sample material resulting in an about 1 cm of the solution on the clean swatch. Just like the reference swatches, the test sample material swatch is dried in a vented hood for 30 minutes and then wrapped in aluminum foil to prevent contamination. […]

Where [3] appears, read: test material Conc 50 ppm on isovaleric acid malodorous swatch.
Setting [4] is: test material Conc 10 ppm on isovaleric acid malodorous swatch.

`CCCCCCCCCCCO` [Undecanol] came in with a BI in test [1] (setting [3]) of 2.3.

With `CC1(C)CCc2ccc(CCC=O)cc21` [Material 261], the BI was determined as 1.8 in test [1] (setting [4]) and 1.3 in test [1] (setting [3]).

`CC(=O)OCCCCCCC(C)C` [Material 204]: the BI in test [1] (setting [4]) is 2.0; in test [1] (setting [3]), 2.7.

In the case of `COC(=O)OC1CC/C=C\CCC1` (stereo not drawn) [Material 1139], the BI in test [1] (setting [4]) is recorded as 2.0; in test [1] (setting [3]), 2.7.

Consider `CCC(=O)OC1CC2C3C=CCC3C1C2(C)C` (stereo not drawn) [8,8-dimethyl-3a,4,5,6,7,7a-hexahydro-1H-4,7-methanoinden-6-yl propionate], for which the FFI in test [2] (Conc 10 ppm) and in test [2] (Conc 50 ppm) was 0 in each case. Besides, the BI in test [1] (Conc 10 ppm) amounted to 1.5; in test [1] (Conc 50 ppm), 2.2.

Consider `CC(C)(C)C1CCCCC1` [4-tert-butyl cyclohexane], for which the BI in test [1] (setting [4]) and in test [1] (setting [3]) was 2.0 each time.

Regarding `O=C1CCC2CCCCC2O1` (stereo not drawn) [3,4,4a,5,6,7,8,8a-octahydrochromen-2-one], the BI in test [1] (setting [4]) and in test [1] (setting [3]) was 2.0 each time.

As for `CCC(O)COC1CCCCC1C(C)(C)C` (stereo not drawn) [Material 677], the BI was found to be 2.3 in test [1] (setting [4]) and 2.0 in test [1] (setting [3]).

`C=C1CCC2OC2(C)CCC2C1CC2(C)C` (stereo not drawn) [Material 1148] showed a BI in test [1] (setting [3]) of 2.3.

As to `CC1(C)C2CCC3(C2)C1C(=O)CCC3(C)C` (stereo not drawn) [Material 1149], the values for the BI in test [1] (setting [4]) and in test [1] (setting [3]) were 1.5 and 2.3, respectively.

In test [1] (setting [4]), `CCCCCCCCCCCCCCCC(=O)OC` [Material 109] showed a BI of 2.0.

Molecule `CCCCCCCCCCCCO` [Material 174] returned a BI in test [1] (setting [3]) of 2.3.

`CC(CCO)CCc1ccccc1` (stereo not drawn) [Material 962]: the BI in test [1] (setting [4]) is 2.3; in test [1] (setting [3]), 1.7.

As for `CC(=O)OC1CC2CC1C1CC=CC21` (stereo not drawn) [Material 281], the BI in test [1] (setting [4]) and in test [1] (setting [3]) was 2.0 throughout.

Consider `CC(C)CC(=O)O` [isovaleric acid, reference compound], for which the “BI reference swatch grade, Ave” value in test [1] (2 μL 0.08% isovaleric acid, graders 1-5 (Table 10)) was determined as 1.0. Also, the figures for the “BI reference swatch grade, single expert grader” value in test [1] (stripped swatch with 2 μL 0.08% isovaleric acid), in test [1] (stripped swatch with 5 μL 0.08% isovaleric acid) and in test [1] (stripped swatch with 20 μL 0.08% isovaleric acid) were 1.0, 2.5 and 2.5, respectively.

Consider `CC1(C)CCc2ccc(CCC=O)cc21` [Material 261, 3-(3,3-dimethyl-2,3-dihydro-1H-inden-5-yl)propanal], for which, in test [2] (Conc 50 ppm), the FFI was 0.5. Further, the figures for the BI in test [1] (Conc 10 ppm) and in test [1] (Conc 50 ppm) were 1.5 and 2.7, respectively.

In test [1] (setting [3]), `CCCCCCCCCCCC(=O)OCC` [Material 391] registered a BI of 2.2.

In test [1] (setting [3]), `CCOC(=O)OC1C(C)CCC(C)C1C` (stereo not drawn) [Material 1005] gave a BI of 2.6.

`C=CC(C)=CCC=C(C)C` [Material 524] gave a BI in test [1] (setting [3]) of 2.8.

In test [2] (Conc 50 ppm), `CC1CCC2(C(C)C)CC(C)OC2C1` (stereo not drawn) [4,8-dimethyl-1-(methylethyl)-7-oxybiciclo [4.3.0]nonane] displayed an FFI of 0.3. Also, the BI in test [1] (Conc 10 ppm) was found to be 2.0; in test [1] (Conc 50 ppm), 2.2.

Values taken from patent publication US20160090557A1, “SUBSTRATES COMPRISING MALODOR REDUCTION COMPOSITIONS” (The Procter & Gamble Company, priority 2014, published 2016).
